Assay results: patent US4088772A, “Methanodibenzocycloheptapyrroles” (E. I. Du Pont de Nemours and Company, priority 1975, dated 1978)
Read-outs that look alike come from different tables or passages of the source.

How the values were obtained:
[1] = in vivo; details: mouse, in vivo, po
[2] = test system: female white mice; assay: animal or person; details: Mus musculus, po
[3] = test system: phenylquinone-induced writhing; assay: Phenylquinone writhing test (analgesia); format: in vivo, mouse (Carworth CF1 S female); details: Mus musculus
Description: This mouse test is predictive of analgesic response in humans. [E. Siegmund, R. Cadmus and G. Lee, Proc. Soc.
ED50 values were obtained graphically from the data.

[4] = read-out: Catatonia ED50, Table 1, oral, mice
[5] = read-out: Exploratory Loss Visual ED50, Table 1, oral, mice
[6] = read-out: Muscle Tone ED50, Table 1, oral, mice
[7] = read-out: Ptosis ED50, Table 1, oral, mice
[8] = read-out: Reflexes Grip ED50, Table 1, oral, mice
[9] = read-out: Reflexes Lift ED50, Table 1, oral, mice
[10] = read-out: Reflexes Pinna ED50, Table 1, oral, mice

SMILES	LD50 at 24 h [1] [mg/kg]	ED50 ([1]; Tremors ED50, Table 1, mice) [mg/kg]	ED50 [2, 4] [mg/kg]	ED50 [2, 5] [mg/kg]	ED50 [2, 6] [mg/kg]	ED50 [2, 7] [mg/kg]	ED50 [2, 8] [mg/kg]	ED50 [2, 9] [mg/kg]	ED50 [2, 10] [mg/kg]	ED50 ([3]; Table 1, oral, mice) [mg/kg]	ED50 [1] [mg/kg]	ED50 ([3]; po, Table 1, mice) [mg/kg]	ED50 ([2]; read-out: Ptosis ED50, Table 1, Extrapolated value) [mg/kg]
c1ccc2c(c1)C1CC3(CN(CC4CC4)CC23)c2ccccc21 (stereo not drawn) [Example 6, 2-Cyclopropylmethyl-2,3,8,12b-tetrahydro-1H-3a,8-methanodibenzo[3,4:6,7]cyclohepta[1,2-c]pyrrole]	300	100	20	20	12	20	100	20	7	4.5			
C=CCN1CC2c3ccccc3C3CC2(C1)c1ccccc13 (stereo not drawn) [Example 10, 2-Allyl-2,3,8,12b-tetrahydro-1H-3a,8-methanodibenzo-[3,4:6,7]cyclohepta[1,2-c]pyrrole]	> 324	187	5	4.5	3.2	< 3	150	6	4	1.9			
CCOC(=O)CCCN1CC2c3ccccc3C3CC2(C1)c1ccccc13 (stereo not drawn) [Example 11, Ethyl 2,3,8,12b-Tetrahydro-1H-3a,8-methanodibenzo-[3,4:6,7]cyclohepta[1,2-c]pyrrole-2-butyrate]	> 324		100	100	200	100	> 324	> 324	100		> 324	26	
CCN1CC2c3ccccc3C3CC2(C1)c1ccccc13 (stereo not drawn) [Example 12, 2-Ethyl-2,3,8,12b-tetrahydro-1H-3a,8-methanodibenzo[3,4:6,7]cyclohepta[1,2-c]pyrrole]	200	200	12	20	36	12	100	12	12	4.3			
CCCCN1CC2c3ccccc3C3CC2(C1)c1ccccc13 (stereo not drawn) [Example 13, 2-n-Butyl-2,3,8,12b-tetrahydro-1H-3a,8-methanodibenzo[3,4:6,7]cyclohepta[1,2-c]pyrrole]	> 324	300	12	12	12	7	200	7	≤ 4	10.5			
CCCCCCCCN1CC2c3ccccc3C3CC2(C1)c1ccccc13 (stereo not drawn) [Example 16, 2-n-Octyl-2,3,8,12b-tetrahydro-1H-3a,8-methanodibenzo[3,4:6,7]cyclohepta[1,2-c]pyrrole]	> 324			20			> 324	20	20		> 324	12	
CCC(CC)CN1CC2c3ccccc3C3CC2(C1)c1ccccc13 (stereo not drawn) [Example 17, 2-(2-Ethylbutyl)-2,3,8,12b-tetrahydro-1H-3a,8-methanodibenzo[3,4:6,7]cyclohepta[1,2-c]pyrrole]	> 324		36	200	100	100	> 324	200	200		> 324	48	
C#CCN1CC2c3ccccc3C3CC2(C1)c1ccccc13 (stereo not drawn) [Example 18, 2-Propargyl-2,3,8,12b-tetrahydro-1H-3a,8-methanodibenzo[3,4:6,7]cyclohepta[1,2-c]pyrrole]	> 324	> 324	100	200	300	200	> 324	200	> 324	> 135			
C=C1CC(CN2CC3c4ccccc4C4CC3(C2)c2ccccc24)C1 (stereo not drawn) [Example 20, 2-(3-Methylenecyclobutylmethyl)-2,3,8,12b-tetrahydro-1H-3a,8-methanodibenzo[3,4:6,7]cyclohepta[1,2-c]pyrrole]	> 324		13	21	15	11	362	21	24		> 324	8.2	
C1=C(CN2CC3c4ccccc4C4CC3(C2)c2ccccc24)CCC1 (stereo not drawn) [Example 21, 2-(1-Cyclopentenylmethyl)-2,3,8,12b-tetrahydro-1H-3a,8-methanodibenzo[3,4:6,7]cyclohepta[1,2-c]pyrrole]	> 324		20	7	36	7	300	36	20		> 324	2.9	
c1ccc2c(c1)C1CC3(CN(CCC4CCCC4)CC23)c2ccccc21 (stereo not drawn) [Example 22, 2-(2-Cyclopentylethyl)-2,3,8,12b-tetrahydro-1H-3a,8-methanodibenzo[3,4:6,7]cyclohepta[1,2-c]pyrrole]	> 324		18	32	3.6		265	17	11		> 324	10	3
C1=CC(CCN2CC3c4ccccc4C4CC3(C2)c2ccccc24)CC1 (stereo not drawn) [Example 23, 2-(2-Cyclopent-2-enylethyl)-2,3,8,12b-tetrahydro-1H-3a,8-methanodibenzo[3,4:6,7]cyclohepta[1,2-c]pyrrole]	> 324		37	57	37	46	265	88	62		> 324	15	
c1ccc2c(c1)C1CC3(CN(CCCC4CCCC4)CC23)c2ccccc21 (stereo not drawn) [Example 24, 2-(3-Cyclopentylpropyl)-2,3,8,12b-tetrahydro-1H-3a,8-methanodibenzo[3,4:6,7]cyclohepta[1,2-c]pyrrole]	> 324		7	7			> 324	17	17		> 324	6	
C1=CCC(CN2CC3c4ccccc4C4CC3(C2)c2ccccc24)=CC1 (stereo not drawn) [Example 28, 2-(1,4-Cyclohexadienylmethyl)-2,3,8,12b-tetrahydro-1H-3a,8-methanodibenzo[3,4:6,7]cyclohepta[1,2-c]pyrrole]	> 324		24	29	37	17	> 324	57	32		> 324	8.6	
c1ccc2c(c1)C1CC3(CN(CCC4CCCCC4)CC23)c2ccccc21 (stereo not drawn) [Example 29, 2-(2-Cyclohexylethyl)-2,3,8,12b-tetrahydro-1H-3a,8-methanodibenzo[3,4:6,7]cyclohepta[1,2-c]pyrrole]	> 324		21	24	24	17	290	78	50		> 324	28	
c1ccc2c(c1)C1CC3(CN(CCCC4CCCCC4)CC23)c2ccccc21 (stereo not drawn) [Example 30, 2-(3-Cyclohexylpropyl)-2,3,8,12b-tetrahydro-1H-3a,8-methanodibenzo[3,4:6,7]cyclohepta[1,2-c]pyrrole]	> 324		12	4		4	200	12			> 324	7	
